Like-named read-outs stand apart in the source and are kept apart here.
Key:
[1] = system: NRF2 (NQO1 activity as marker for NRF2 activation), BEAS-2B cells; experiment: BEAS-2B NQO1 MTT Assay; type: cell-based; conditions: EC50 of NQO1 specific activity induction, 48 hours incubation, read-out: EC50
Method in brief: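 As a marker of NRF2 activation, NQO1 specific activity was read from the rate of absorbance change at 570 nm in MTT cocktail over 30 minutes. Lysates came from BEAS-2B cells treated for 48 hours at 37° C, and EC50 was derived by 3-parameter fitting.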

rats [2] = conditions: rats on a choline-deficient L-amino acid-defined diet; cited from earlier work
[3] = system: COPD macrophages and alveolar macrophages from cigarette smoke-exposed mice; conditions: cited from earlier work
mice = conditions: NRF2 wild-type vs KO mice after administration; cited from earlier work
rats [4] = conditions: cerebral ischemia-reperfusion model; cited from earlier work

Compound: CC[C@@H]1CN(Cc2cc([C@@H](c3ccc4c(nnn4CC)c3C)C(C)(C)C(=O)NC(C)(C)C(=O)O)ccc2C)S(=O)(=O)c2ccccc2O1 [Example 207, 2-((S)-3-(3-(((R)-4-ethyl-1,1-dioxido-3,4-dihydro-2H-benzo[b][1,4,5]oxathiazepin-2-yl)methyl)-4-methylphenyl)-3-(1-ethyl-4-methyl-1H-benzo[d][1,2,3]triazol-5-yl)-2,2-dimethylpropanamido)-2-methylpropanoic acid]
- EC50 ([1]; Homo sapiens): 100 to 1000 nM

Compound: CC[C@@H]1CN(Cc2cc([C@@H](c3ccc4c(nnn4CC)c3C)C(C)(C)C(=O)NCC(N)=O)ccc2C)S(=O)(=O)c2ccccc2O1 [Example 208, (S)-N-(2-amino-2-oxoethyl)-3-(3-(((R)-4-ethyl-1,1-dioxido-3,4-dihydro-2H-benzo[b][1,4,5]oxathiazepin-2-yl)methyl)-4-methylphenyl)-3-(1-ethyl-4-methyl-1H-benzo[d][1,2,3]triazol-5-yl)-2,2-dimethylpropanamide]
- EC50 ([1]; Homo sapiens): 10 to 100 nM

Compound: CC[C@@H]1CN(Cc2cc([C@@H](c3ccc4c(nnn4CC)c3C)C(C)(C)C(=O)N[C@@H](CCC(=O)O)C(=O)O)ccc2C)S(=O)(=O)c2ccccc2O1 [Example 209, (S)-2-((S)-3-(3-(((R)-4-ethyl-1,1-dioxido-3,4-dihydro-2H-benzo[b][1,4,5]oxathiazepin-2-yl)methyl)-4-methylphenyl)-3-(1-ethyl-4-methyl-1H-benzo[d][1,2,3]triazol-5-yl)-2,2-dimethylpropanamido)pentanedioic acid]
- EC50 ([1]; Homo sapiens): 1000 to 10000 nM

Compound: CC[C@@H]1CN(Cc2cc([C@@H](c3ccc4c(nnn4CC)c3C)C(C)(C)C(=O)N[C@H](CCC(=O)O)C(=O)O)ccc2C)S(=O)(=O)c2ccccc2O1 [Example 210, (R)-2-((S)-3-(3-(((R)-4-ethyl-1,1-dioxido-3,4-dihydro-2H-benzo[b][1,4,5]oxathiazepin-2-yl)methyl)-4-methylphenyl)-3-(1-ethyl-4-methyl-1H-benzo[d][1,2,3]triazol-5-yl)-2,2-dimethylpropanamido)pentanedioic acid]
- EC50 ([1]; Homo sapiens): 100 to 1000 nM

Compound: CC[C@@H]1CN(Cc2cc([C@@H](c3ccc4c(nnn4CC)c3C)C(C)(C)C(=O)N[C@@H](CC(N)=O)C(=O)O)ccc2C)S(=O)(=O)c2ccccc2O1 [Example 211, (S)-4-amino-2-((S)-3-(3-(((R)-4-ethyl-1,1-dioxido-3,4-dihydro-2H-benzo[b][1,4,5]oxathiazepin-2-yl)methyl)-4-methylphenyl)-3-(1-ethyl-4-methyl-1H-benzo[d][1,2,3]triazol-5-yl)-2,2-dimethylpropanamido)-4-oxobutanoic acid]
- EC50 ([1]; Homo sapiens): 1000 to 10000 nM

Compound: CC[C@@H]1CN(Cc2cc([C@@H](c3ccc4c(nnn4CC)c3C)C(C)(C)C(=O)N[C@H](CC(N)=O)C(=O)O)ccc2C)S(=O)(=O)c2ccccc2O1 [Example 212, (R)-4-amino-2-((S)-3-(3-(((R)-4-ethyl-1,1-dioxido-3,4-dihydro-2H-benzo[b][1,4,5]oxathiazepin-2-yl)methyl)-4-methylphenyl)-3-(1-ethyl-4-methyl-1H-benzo[d][1,2,3]triazol-5-yl)-2,2-dimethylpropanamido)-4-oxobutanoic acid]
- EC50 ([1]; Homo sapiens): 100 to 1000 nM

Compound: CC[C@@H]1CN(Cc2cc([C@@H](c3ccc4c(nnn4CC)c3C)C(C)(C)C(=O)N(CCC(=O)O)CC(=O)O)ccc2C)S(=O)(=O)c2ccccc2O1 [Example 213, 3-((S)-N-(carboxymethyl)-3-(3-(((R)-4-ethyl-1,1-dioxido-3,4-dihydro-2H-benzo[b][1,4,5]oxathiazepin-2-yl)methyl)-4-methylphenyl)-3-(1-ethyl-4-methyl-1H-benzo[d][1,2,3]triazol-5-yl)-2,2-dimethylpropanamido)propanoic acid]
- EC50 ([1]; Homo sapiens): 10 to 100 nM

Compound: O=C(NCc1ccccn1)Nc1nnc(-c2ccco2)o1 [NK-252]
- progression of histologic abnormalities, especially hepatic fibrosis (rats [2]): significantly attenuated

Compound: C[S+]([O-])CCCCN=C=S (centres unmarked) [Sulforaphane]
- expression of Macrophage Receptor with Collagenous structure (MARCO) ([3]; COPD macrophages and alveolar macrophages from cigarette smoke-exposed mice): increases
- bacterial phagocytosis and bacterial clearance ([3]; Pseudomonas aeruginosa, non-typable Haemophilus influenzae, ex vivo and in vivo): improving

Compound: Cc1c(-c2cnccn2)ssc1=S [oltipraz]
- progression of histologic abnormalities, especially hepatic fibrosis (rats [2]): significantly attenuated

Compound: CC(C)(C)c1cc(O)ccc1O [tBHQ, tert-butylhydroquinone]
- cortical glutathione levels (mice): increased in NRF2 wild-type but not KO mice
- cortical damage (rats [4]): reduced cortical damage

Compound: (S)-3-(1,4-Dimethyl-1H-benzo[d][1,2,3]triazol-5-yl)-3-(3-(((R)-2-ethyl-2,3-dihydropyrido[3,44][1,4]oxazepin-4(5H)-yl)methyl)-4-methylphenyl)-2,2-dimethyl-N-(pyridin-3-yl)propanamide [Example 111]
- EC50 [1]: 100 to 1000 nM

Source: patent US11078216B2, “Bisaryl amides as NRF2 activators” (GLAXOSMITHKLINE INTELLECTUAL PROPERTY DEVELOPMENT LIMITED, priority 2016, dated 2021)
